Experimental data published in PubChem BioAssay (NCI).
“And” between values parts separate entries of the source, which are not always exact repeats. Equal values may be shown once.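 Growth conditions: 96-well plates. Treatment: test compound, 48 hours, 5 concentrations. Analysis: linear interpolation between bracketing concentrations; unreached endpoints set to highest concentration. GI50 = concentration required for 50% inhibition of growth. Definition used: TGI = concentration required for complete inhibition of growth.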

Key:
Assay in all cases: DTP human tumour cell line panel, 48 h
TK-10 renal = test system: TK-10 renal
MDA-MB-231 breast = test system: MDA-MB-231 breast
SNB-75 CNS = test system: SNB-75 CNS
SK-MEL-5 melanoma = test system: SK-MEL-5 melanoma
SR leukemia = test system: SR leukemia
CAKI-1 renal = test system: CAKI-1 renal
K-562 leukemia = test system: K-562 leukemia
HCT-15 colon = test system: HCT-15 colon
RPMI-8226 leukemia = test system: RPMI-8226 leukemia
NCI-H460 lung = test system: NCI-H460 lung
OVCAR-4 ovarian = test system: OVCAR-4 ovarian
HS 578T breast = test system: HS 578T breast
OVCAR-5 ovarian = test system: OVCAR-5 ovarian

SMILES	TGI (TK-10 renal)	TGI (MDA-MB-231 breast)	TGI (SNB-75 CNS)	TGI (SK-MEL-5 melanoma)	TGI (SR leukemia)	TGI (CAKI-1 renal)	TGI (K-562 leukemia)	TGI (HCT-15 colon)	TGI (RPMI-8226 leukemia)	TGI (NCI-H460 lung)	TGI (OVCAR-4 ovarian)	TGI (HS 578T breast)	TGI (OVCAR-5 ovarian)	GI50 (TK-10 renal)	GI50 (SR leukemia)	GI50 (CAKI-1 renal)	GI50 (K-562 leukemia)	GI50 (RPMI-8226 leukemia)	GI50 (NCI-H460 lung)	GI50 (OVCAR-5 ovarian)
CC(=O)O[C@@H]1C[C@]2(C(=O)c3ccccc3)C(=O)C(=O)S[C@]12c1ccccc1	> 100 µM	> 100 µM	> 100 µM	> 100 µM	83.1 µM	> 100 µM	85 µM	> 100 µM	99.4 µM	> 100 µM	> 100 µM	> 100 µM	> 100 µM							
C[C@H]1C[C@@H]2[C@H]([C@@H](O)C[C@@]3(C)[C@H]2CC[C@]3(O)C(=O)CO)[C@@]2(C)C=CC(=O)C=C12	> 100 µM			> 100 µM	> 100 µM	> 100 µM	> 100 µM	> 100 µM	> 100 µM	> 100 µM	> 100 µM		> 100 µM							
CC(C)(C)[Si](OC1CCOC1=O)(c1ccccc1)c1ccccc1 (stereo not drawn)	84.6 µM		> 100 µM	26.1 µM	> 10 µM			61.5 µM	> 100 µM	49.3 µM			> 100 µM							
COc1cc2c(c(OC)c1OC)-c1ccc(OC)c(=O)cc1C(NC(=O)COc1ccccc1)CC2 (stereo not drawn)	> 93.7 µM	1.22 µM	10.5 µM	0.0371 µM	8.93 µM	15.3 µM	60.8 µM	> 100 µM	38.3 µM	> 10.6 µM	> 84 µM	> 31.6 µM	> 100 µM							
Cc1ccc(O)c(Cc2nc3ccccc3nc2-c2cccc(Cl)c2)c1	> 100 µM	> 100 µM		> 100 µM	> 100 µM	> 100 µM	> 100 µM	46.1 µM	79.4 µM	> 100 µM	65.8 µM	> 100 µM	> 100 µM							
COc1cc(C(=O)NC2CCc3cc(OC)c(OC)c(OC)c3-c3ccc(OC)c(=O)cc32)cc(OC)c1OC (stereo not drawn)	> 91.6 µM	> 100 µM	18.3 µM	0.377 µM	> 100 µM	34 µM	22 µM	> 100 µM	27.4 µM	15.3 µM	> 85.1 µM	> 21.1 µM	> 100 µM							
c1ccc2c(CSCc3cccc4ccccc34)cccc2c1	> 100 µM	> 100 µM	> 100 µM	> 100 µM	> 100 µM	> 100 µM	> 100 µM	> 100 µM		> 100 µM	> 100 µM	> 100 µM	> 100 µM							
C[n+]1cccc(NC(=O)c2ccc(NC(=O)C34CCC(C(=O)Nc5ccc(C(=O)Nc6ccc[n+](C)c6)cc5)(CC3)CC4)cc2)c1			78.7 µM	> 100 µM	> 100 µM		> 100 µM	> 100 µM	> 100 µM	> 100 µM	> 100 µM		> 100 µM							
CCCCc1ccc(N=C(N)N)cc1	63.9 µM	> 100 µM		26.8 µM		> 100 µM	83.4 µM	> 100 µM	45.2 µM	61.8 µM	> 100 µM	> 100 µM	> 100 µM							
CC(=O)Oc1ccccc1			> 100 µM	> 100 µM		> 100 µM	> 100 µM	> 100 µM	> 100 µM	> 100 µM	> 100 µM		> 100 µM							
O=C(C=P(c1ccccc1)(c1ccccc1)c1ccccc1)c1ccc(-c2cccs2)cc1	11.3 µM	25.5 µM	8.86 µM	5.25 µM		19.6 µM	15.9 µM	24.7 µM	5.07 µM	12.2 µM	7.52 µM	49.4 µM	17.7 µM							
CCCCN1C(=O)C2Cc3c([nH]c4ccccc34)C(c3cccc(O)c3)N2C1=O (stereo not drawn)	33.6 µM	31.2 µM	32.7 µM	31.1 µM	45.6 µM	33.9 µM	47.5 µM	37.2 µM	51.2 µM	37.1 µM	34.6 µM	69.1 µM	33 µM							
CNC(=O)OCc1nc(SC)n(C)c1CO			> 100 µM	> 100 µM		> 100 µM	> 100 µM	> 100 µM	> 100 µM	> 100 µM	> 100 µM		> 100 µM							
COC1/C=C(C)/C=C/C(C)/C=C/C(=O)OC(/C(C)=C/C=C(\C)CNC(=O)[C@H](CO)NC=O)C(C)/C=C/C=C/C(OC)CC/C=C(C)/C=C/C1 (stereo partly drawn)	> 1 µM		> 1 µM	0.0654 µM		> 0.397 µM	0.0472 µM	> 1 µM	0.0769 µM	> 1 µM	> 1 µM	> 1 µM	> 1 µM							
CN1C=c2c3c(ccc2=C2C=CC4C=C5OCOC5=CC4=C21)OCO3 (stereo not drawn)	3.2 µM and 24.9 µM	2.54 µM and 4.52 µM	3.49 µM and 14.6 µM	2.95 µM and 6.14 µM		2.74 µM and 10.6 µM		2.89 µM and 3.2 µM	1.86 µM and 6.79 µM	3.18 µM and 9.8 µM	3.53 µM and 7.5 µM	> 24.9 µM and 5.78 µM	3.04 µM and 18.5 µM	1.77 µM and 12 µM	2.48 µM	1.42 µM and 3.49 µM	1.37 µM and 3.01 µM	0.625 µM and 2.24 µM	1.63 µM and 3.16 µM	1.65 µM and 6.19 µM
O=C(CSCC(=O)N/N=C/c1ccc2c(c1)OCO2)N/N=C/c1ccc2c(c1)OCO2	> 100 µM	> 100 µM	> 100 µM	> 100 µM		> 100 µM	> 100 µM	> 100 µM	> 100 µM	> 100 µM	> 100 µM	> 100 µM	> 100 µM							
COc1ccccc1/C=C/c1ccnc2ccccc12	30.9 µM	31.1 µM	17 µM	26.4 µM	35.7 µM	40.3 µM	30.7 µM	25 µM	37.8 µM	28.9 µM	25.4 µM	38.5 µM	32.4 µM							
CCOC(=O)c1cnc(N(C)C)nc1SC(=N)N	> 100 µM	> 100 µM	> 100 µM	> 100 µM	> 100 µM	> 100 µM	> 100 µM	> 100 µM	> 100 µM	> 100 µM	> 100 µM	> 100 µM	> 100 µM							
CC(=O)Nc1ccc2c(c1)/C(=C\c1ccc([N+](C)(C)C)cc1)c1ccccc1-2	> 100 µM	> 100 µM	> 100 µM	61.8 µM		> 100 µM	> 100 µM	> 100 µM	91.3 µM	> 100 µM	> 100 µM	88.3 µM	80.4 µM							
